Source: US7951788B2, “Method of treating cancer and other conditions or disease states using L-cytosine nucleoside analogs” (Yale University, priority 2005, dated 2011)

Key:
colon 38 mouse tumor = experiment: Experiment 1: growth of colon 38 tumor implanted in the flank of mice, drugs alone and combined with 5-FU/leucovorin; assay type: in vivo; settings: FIG. 1; for effect on the anti-cancer activity of 5-FU/LV: combination with 5FU/LV 150 mg/kg each i.p. once on day one, nucleoside p.o. b.i.d. for 5 days (3TC, FTC 100 mg/kg; LFD4C 20 mg/kg); for growth of colon 38 mouse tumor (tumor volume as % of Day 1): drug alone; for growth of colon 38 mouse tumor (tumor volume as % of Day 1) / duration of the effect on colon 38 tumor growth: immunocompetent mice, p.o. b.i.d. for 5 days, 3TC and FTC 100 mg/kg, LFD4C 20 mg/kg
Description: (§1) In general, the following protocol was used to implant mice with tumor cell lines and to test drugs for the anti-cancer effect.
(§2) This tumor is passed from a solid tumor growing in mice. Several grams (assuming a gram per ml) are pressed through a sterile screen and suspended in a tissue culture media without phenol red or fetal calf serum (a balanced salt solution) at 2 ml/gram of tumor. Then 0.1 ml of this tumor suspension is implanted into the flank of the mouse. Ten days to two weeks after implantation (when the tumors could be measured with a caliper), unless otherwise indicated, the drug therapy was initiated.
(§3) In general, drugs are delivered according to the following schedule. Every day the mice are weighed to deter the amount to be injected and as an index of toxicity.
(§4) The Tumor Volume is calculated from the measurements by the formula: length (mm)×width (mm)×width (mm)×Π/6 as a % of Day 1.
This experiment was designed to determine the effect of 3TC, FTC or LFD4C alone and in combination with 5-Fluorouracil with leucovorin rescue on the growth of mouse tumor (colon 38) in immuno-competent mice. The drugs were administered to the mice according to the following schedule:
5FU/LV—150 mg/kg each i.p. once on day one
3TC—100 mg/kg p.o. b.i.d. for 5 days
FTC—100 mg/kg p.o. bid for 5 days
LFD4C—20 mg/kg p.o. b.i.d. for 5 days
Combination groups received both treatments as per above schedules.
In FIG. 1, the following legend applies:
3TC (100 mg/kg) p.o.b.i.d.×5 days;
FTC (100 mg/kg) p.o.b.i.d.×5 days;
LFd4C (20 mg/kg) p.o.b.i.d.×5 days;
Combination groups received both treatments as per above.

colon 38 = experiment: Experiment 2: enhancement of the anti-cancer effect of oxaliplatin on colon 38 growth in mice; assay type: in vivo, C57BL6 female mice; settings: combination with oxaliplatin 10 mg/kg i.p. once on day 1, FIG. 2; for enhancement of the anti-tumor effect of oxaliplatin on colon 38: nucleoside p.o. b.i.d. days 1-5 (3TC, FTC 100 mg/kg; LFd4C 15 mg/kg per legend); for duration of the enhancing effect with oxaliplatin: nucleoside p.o. b.i.d. days 1-5
Description: as §1, §2, §3, §4
Experiment 2 tested the effects of 3TC, FTC and LFD4C (same schedule as above) on the enhancement of anti-cancer drug effect of oxaliplatin (10 mg/kg i.p., once on day 1) on colon 38 growth in C57BL6 female mice. […].
In FIG. 2, the following legend applies:
3TC and FTC (100 mg/kg) p.o.b.i.d. day 1-5;
LFd4C (15 mg/kg) p.o.b.i.d. days 1-5;
Oxaplatin (10 mg/kg) i.p. once on day 1;
Combination groups received both treatments as described above.

| SMILES | effect on the anti-cancer activity of 5-FU/LV (colon 38 mouse tumor) | growth of colon 38 mouse tumor (tumor volume as % of Day 1) (colon 38 mouse tumor) | duration of the effect on colon 38 tumor growth (colon 38 mouse tumor) | enhancement of the anti-tumor effect of oxaliplatin on colon 38 (colon 38) | duration of the enhancing effect with oxaliplatin (colon 38) |
| --- | --- | --- | --- | --- | --- |
| Nc1nc(=O)n([C@@H]2CS[C@H](CO)O2)cc1F [FTC, emtricitabine] | significant (additive or synergistic) | slows down the growth | lasted well past the 5 day therapy | clearly enhanced | lasts well after the treatment is stopped |
| Nc1nc(=O)n([C@@H]2C=C[C@H](CO)O2)cc1F [LFD4C, Elvucitabine] | significant (additive or synergistic) | slows down the growth | lasted well past the 5 day therapy | clearly enhanced | lasts well after the treatment is stopped |
